US20230257366A1, “SULFUR-CONTAINING ISOINDOLINE DERIVATIVE, AND PREPARATION METHOD THEREFOR AND MEDICAL USE THEREOF” (JIANGSU HENGRUI PHARMACEUTICALS CO., LTD., priority 2020, published 2023)

Assays:
[1] = Plasma stability in monkey plasma (LC-MS/MS); assay type: in vitro ADME; settings: monkey, plasma
Description: The stability of the compound of Example 6 and the control example CC-92480 after incubation in cryopreserved monkey plasma at 37° C. for 0 min, 15 min, 30 min, 60 min, 120 min, 180 min and 240 min was determined quantitatively by LC-MS/MS.
(§1) Compound of Example 6 and control example CC-92480.
Monkey plasma was purchased from Shanghai Medicilon Inc.
A certain amount of the compound of Example 6 was weighed and prepared with DMSO to obtain a 30 mM stock solution. A certain volume of the stock solution was diluted into a solution I at a concentration of 1600 μM with DMSO; and a certain volume of the solution I at 1600 μM was diluted with 50% methanol to obtain a working solution II at a concentration of 16 μM. A 30 mM stock solution, a 1600 μM solution I′, and a 16 μM working solution II′ of CC-92480 were prepared as described above.
5 μL of the working solutions at 16 μM of the compound of Example 6 and the control example CC-92480 were each added to 75 μL of plasma to make the final concentration of the compounds of 1 μM. The samples were incubated under a 37° C. water bath for 0 min, 15 min, 30 min, 60 min, 90 min, 120 min, and 180 min. […] The supernatant was analyzed by LC-MS with a sample injection volume of 2 μL.

NCI-H929 xenograft tumor = assay: Pharmacodynamic test: NCI-H929 xenograft tumor in CB-17 SCID mice; assay type: in vivo
Description: This experiment was performed to evaluate the inhibition effect of the compound of Example 6 and the control example CC-92480 on the growth of human multiple myeloma cell NCI-H929 xenograft tumor in CB-17 SCID mice.
Compound of Example 6; control example CC-92480 (see compound 2 of WO2019014100A1, synthesized according to the method disclosed therein)
Solutions of the compound of Example 6 and the control example CC-92480 were prepared with 5% DMSO+20% PEG400+70% (10% TPGS)+5% (1% HPMC K100LV).
Thirty CB-17 SCID female mice, purchased from Beijing Vital River Laboratory Animal Technology Co., Ltd. (certificate No. 20170011006049, SCXK (Shanghai) 2017-0011), weighing about 19 g at the time of purchase, were bred at 5 mice/cage (in 12/12 hour light/dark cycle, at a constant temperature of 23±1° C. and humidity of 50%-60%) and had free access to food and water.
After adaptive feeding, the CB-17 SCID mice were grouped as follows:
NCI-H929 cells in a logarithmic growth phase were inoculated subcutaneously into the right flank of 30 female CB-17 SCID mice at 5×10^6 cells/mouse/100 μL (containing 50 μL of Matrigel). After 10 days, when the tumor volume of the tumor-bearing mice reached about 200 mm^3, the mice were randomly divided into 3 groups according to the tumor volume and body weight: vehicle control group, CC-92480-1 mpk, compound of Example 6-1 mpk, with 7 mice in each group. The day of grouping was set as Day 0 (D0), and intragastric administration was performed once a day for 11 days (Table 2). For the tumor-bearing mice, the tumor volume was measured with a vernier caliper and the body weight was measured with a balance twice a week, and the data were recorded.
All data were plotted and statistically analyzed using Excel and GraphPad Prism 5 software.
The tumor volume (V) was calculated as follows: V=½×a×b^2, where a and b represent length and width, respectively.
The relative tumor proliferation rate T/C (%)=(T−T0)/(C−C0)×100(%), where T and C are the tumor volume of animals at the end of the experiment in the treatment group and control group, respectively; T0 and C0 are the tumor volume of animals at the beginning of the experiment in the treatment group and control group, respectively.
Tumor growth inhibition TGI (%)=1−T/C (%), and when TGI (%) exceeds 100%, no specific value will be shown, and it is expressed only by >100%.
Tumor regression (%)=[(T0−T)/T0]×100(%).

[2] = Pharmacokinetic evaluation in mice after intragastric administration (LC/MS/MS); assay type: in vivo; settings: female, mouse, in vivo, po, 2 mg/kg
Description: The drug concentration in the plasma of the test animals (mice) at different time points after intragastric administration of the compound of Example 6 and the control example CC-92480 was determined by an LC/MS/MS method. The pharmacokinetic behavior of the compound of the present disclosure in mice was studied and its pharmacokinetic profile was evaluated.
as §1
Eighteen mice, female, purchased from Beijing Vital River Laboratory Animal Technology Co., Ltd., with animal production license number of SCXK (Shanghai) 2017-0005.
A certain amount of compound of Example 6 was weighed, dissolved by adding 5% by volume of DMSO and 5% Tween 80 (Shanghai Titan Scientific Co., Ltd.), and then prepared into a 0.1 mg/mL clear solution by adding 90% normal saline.
A certain amount of the control example CC-92480 was weighed, dissolved by adding 5% by volume of DMSO and 5% Tween 80 (Shanghai Titan Scientific Co., Ltd.), and then prepared into a 0.1 mg/mL clear solution by adding 90% normal saline.
Nine mice were intragastrically administered with the compound of Example 6 at a dose of 2 mg/kg and at a volume of 0.2 mL/10 g.
Nine mice were intragastrically administered with the control example CC-92480 at a dose of 2 mg/kg and at a volume of 0.2 mL/10 g.
Mice were intragastrically administered with the compound of Example 6 and the control example CC-92480, and 0.2 mL of blood was collected before the administration and 0.25 h, 0.5 h, 1.0 h, 2.0 h, 4.0 h, 6.0 h, 8.0 h, 11.0 h and 24.0 h after the administration (3 animals at each time point), placed in EDTA-K2 anticoagulation tubes, and centrifuged at 10,000 rpm for 1 min(4° C.). Plasma was separated within 1 h, and stored at −20° C. for testing. The process from blood collection to centrifugation was performed under an ice bath.
The content of the test compounds at different concentrations in mouse plasma after the administration was determined: 25 μL of mouse plasma at each time point after the administration was mixed with 50 μL (100 ng/mL) of internal standard solution camptothecin (National Institutes for Drug Control) and 175 μL of acetonitrile. The mixture was vortexed for 5 min and centrifuged for 10 min (3700 rpm/min), and 1 μL of the supernatant of the plasma sample was taken for LC/MS/MS assay (API4000 triple quadrupole tandem mass spectrometer, Applied Biosystems, USA; Shimadzu, LC-30AD ultra high performance liquid chromatography system, Shimadzu, Japan).

NCI-H929 cells = assay: NCI-H929 proliferation experiment (CellTiter-Glo, 5 days); assay type: cell-based; settings: Homo sapiens, 120 h, 5 days incubation, read-out: IC50 values for the inhibition of proliferation of NCI-H929 cells
Description: The following method was used to determine the inhibitory activity of the compounds of the present disclosure on the proliferation of NCI-H929 cells. The experimental method was briefly described as follows.
NCI-H929 cells (ATCC, CRL-9068) were cultured in a complete medium (RPMI 1640 medium (Hyclone, SH30809.01) containing 10% fetal bovine serum (Corning, 35-076-CV) and 0.05 mM 2-mercaptoethanol (Sigma, M3148)). On the first day of the experiment, NCI-H929 cells were seeded in a 96-well plate at a density of 6000 cells/well with a complete medium to form 100 μL of cell suspension per well, and 10 μL of test compound prepared in a complete medium and diluted in a gradient was added to each well. The compound was firstly dissolved in DMSO, with an initial concentration of 10 mM, and then subjected to serial dilution at a 5-fold concentration gradient for a total of 9 concentration points, with a blank control of 100% DMSO. Another 5 μL of the compound dissolved in DMSO was added to 95 μL of complete medium, i.e., the compound was diluted 20-fold with the complete medium. Finally the compound diluted in the complete medium at 10 μL/well was added to the cell suspension, wherein the final concentrations of the compound were 9 concentration points obtained by 5-fold gradient dilution starting from 50 μM. A blank control containing 0.5% DMSO was set. The plate was incubated in a cell incubator at 37° C. with 5% CO2 for 5 days. On the sixth day, the 96-well cell culture plate was taken out, added with a CellTiter-Glo® luminescent cell activity detect reagent (Promega, G7573) at 50 μL/well, left to stand at room temperature for 10 min, and read for the luminescence signal values using a multi-mode microplate reader (PerkinElmer, EnVision 2015). IC50 values for the inhibitory activity of the compounds were calculated using Graphpad Prism software, with the results shown in Table 1.

With `N#Cc1ccc(N2CCN(Cc3ccc(COc4cccc5c4CN([C@H]4CCC(=O)NC4=O)C5=O)cc3)CC2)c(F)c1` [CC-92480, reference compound] the half-life at 1 µM [1] was 199 min, the “Mean tumor volume D0” value (NCI-H929 xenograft tumor; 1 mg/kg qd, baseline at day of grouping (D0), n=7) was 157.2 mm^3 and the “Number of remaining animals/group” value (NCI-H929 xenograft tumor; 1 mg/kg qd/11d po) was 7/7. The “% tumor regression D11” value (NCI-H929 xenograft tumor; 1 mg/kg qd/11d po (i.g.), D11) was 34%, the “Mean tumor volume D11” value (NCI-H929 xenograft tumor; 1 mg/kg qd/11d po (i.g.), D11, n=7) was 103.6 mm^3 and the AUC [2] was 1940 ng·h/mL. It also gave a CL/F [2] of 17.2 mL/min/kg, a Cmax [2] of 692 ng/mL and an MRT [2] of 2.3 h. For the same molecule, the Vd/F [2] was 1.96 L/kg and the half-life [2] was 78 min.
In the case of `N#Cc1ccc(N2CCC(Sc3ccc(COc4cc(F)cc5c4CN([C@H]4CCC(=O)NC4=O)C5=O)cn3)CC2)c(F)c1` [Compound 8, (S)-4-(4-((5-(((2-(2,6-dioxopiperidin-3-yl)-6-fluoro-1-oxoisoindolin-4-yl)oxy)methyl)pyridin-2-yl)thio)piperidin-1-yl)-3-fluorobenzonitrile], the IC50 (NCI-H929 cells) is reported as 0.28 nM.
For `N#Cc1ccc(N2CCC(Sc3ccc(COc4cccc5c4CN([C@H]4CCC(=O)NC4=O)C5=O)cc3Cl)CC2)c(F)c1` [Compound 14, (S)-4-(4-((2-chloro-4-(((2-(2,6-dioxopiperidin-3-yl)-1-oxoisoindolin-4-yl)oxy)methyl)phenyl)thio)piperidin-1-yl)-3-fluorobenzonitrile], the IC50 (NCI-H929 cells) was 0.27 nM.
`N#Cc1ccc(N2CCC(Sc3ccc(COc4cccc5c4CN([C@H]4CCC(=O)NC4=O)C5=O)cc3)CC2)c(F)c1` [Compound 3, (S)-4-(4-((4-(((2-(2,6-dioxopiperidin-3-yl)-1-oxoisoindolin-4-yl)oxy)methyl)phenyl)thio)piperidin-1-yl)-3-fluorobenzonitrile] showed an IC50 (NCI-H929 cells) of 0.1 nM.
In the case of `N#Cc1ccc(N2CCC(Sc3cc(F)c(COc4cccc5c4CN([C@H]4CCC(=O)NC4=O)C5=O)cc3F)CC2)c(F)c1` [Compound 11, (S)-4-(4-((4-(((2-(2,6-dioxopiperidin-3-yl)-1-oxoisoindolin-4-yl)oxy)methyl)-2,5-difluorophenyl)thio)piperidin-1-yl)-3-fluorobenzonitrile], the IC50 (NCI-H929 cells) is reported as 0.22 nM.
With `N#Cc1ccc(N2CCC(Sc3ccc(COc4cccc5c4CN([C@H]4CCC(=O)NC4=O)C5=O)cc3F)CC2)c(F)c1` [Compound 4, (S)-4-(4-((4-(((2-(2,6-dioxopiperidin-3-yl)-1-oxoisoindolin-4-yl)oxy)methyl)-2-fluorophenyl)thio)piperidin-1-yl)-3-fluorobenzonitrile] the IC50 (NCI-H929 cells) was 0.17 nM.
`N#Cc1ccc(N2CCC(Sc3ccc(COc4cccc5c4C(=O)N(C4CCC(=O)NC4=O)C5=O)cc3)CC2)c(F)c1` (centres unmarked) [Compound 2, 4-(4-((4-(((2-(2,6-dioxopiperidin-3-yl)-1,3-dioxoisoindolin-4-yl)oxy)methyl)phenyl)thio)piperidin-1-yl)-3-fluorobenzonitrile] gave an IC50 (NCI-H929 cells) of 4.36 nM.
